For this test, the system named is L1210. Kind of test: Antiproliferative activity using the murine L1210 leukemia cell line. The class given is functional, cell-based. As to conditions: Mus musculus.

Here are results for four compounds from ChEMBL document CHEMBL1131798, “Synthesis and cytotoxicity of analogues of the antibiotic BE 10988 inhibitors of DNA topoisomerase II” (Bioorg Med Chem Lett, 1999).

As for `COc1ccc(OC)c2c1c(C(=O)NCCN1CCOCC1)cn2C`, the IC50 (commonly the concentration that inhibits the measured activity by half) is over 100 µM.
The same measure for `COc1ccc(OC)c2c1c(-c1nc(C(N)=O)cs1)cn2C`: over 10 µM; for `Cn1cc(C(=O)NCCN2CCOCC2)c2c1C(=O)C=CC2=O`: 6.5 µM.
The same measure for `Cn1cc(-c2nc(C(N)=O)cs2)c2c1C(=O)C=CC2=O`: 0.8 µM.
